# Test results reported in patent US20240239755A1, “SUBSTITUTED PYRIDAZINONES, SALTS OR N-OXIDES THEREOF AND THEIR USE AS HERBICIDALLY ACTIVE SUBSTANCES” (Bayer Aktiengesellschaft, priority 2021, published 2024).
# Columns and labels:
# Format in all cases: in vivo
# Stellaria media (STEME) [1] = assay: Herbicidal post-emergence action, 320 g/ha, STEME; details: visual grading after ca. 3 weeks
# Procedure, shortened: (§1)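 Visual herbicidal scoring (0% = like control, 100% = plants died) was done about 3 weeks after treatment, with plants kept in the greenhouse. Treatment was a 320 g/ha spray of WP or EC aqueous preparations with 0.5% additive, at a water volume of 600 L/ha. Plants were at the single-leaf stage, 2–3 weeks post-sowing in sandy loam.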
# [2] = test system: Amaranthus retroflexus (AMARE); assay: Herbicidal post-emergence action, 320 g/ha, AMARE; details: visual grading after ca. 3 weeks
# Procedure, shortened: as §1
# [3] = test system: Echinochloa crus-galli (ECHCG); assay: Herbicidal post-emergence action, 1280 g/ha (Table B3); details: visual assessment after ca. 3 weeks vs untreated controls
# Procedure, shortened: (§2)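 Read-out is visual herbicidal effect in percent against untreated controls (100% = dead plants, 0% = like controls), scored about 3 weeks after treatment. Plants at the single-leaf stage were sprayed on green parts with aqueous WP or EC preparations containing 0.5% additive, 600 L water/ha.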
# [4] = test system: Amaranthus retroflexus (AMARE); assay: Herbicidal post-emergence action, 1280 g/ha, AMARE; details: visual grading vs untreated controls
# Procedure, shortened: (§3)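 Pot-grown weeds in sandy loam sprayed post-emergence at the single-leaf stage, 2–3 weeks after sowing, with WP or EC formulations plus 0.5% additive in 600 L water/ha at 1280 g/ha. After ca. 3 weeks in the greenhouse, damage scored visually as % effect versus untreated controls (100% = plants dead).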
# Kochia scoparia (KCHSC) [5] = assay: Herbicidal post-emergence action, 320 g/ha, KCHSC; details: visual grading after ca. 3 weeks
# Procedure, shortened: as §1
# Setaria viridis (SETVI) = assay: Herbicidal post-emergence action, 1280 g/ha (Table B8); details: visual assessment after ca. 3 weeks vs untreated controls
# Procedure, shortened: as §2
# Veronica persica (VERPE) [6] = assay: Herbicidal post-emergence action, 1280 g/ha, VERPE; details: visual grading vs untreated controls
# Procedure, shortened: as §3
# Kochia scoparia (KCHSC) [7] = assay: Herbicidal post-emergence action, 1280 g/ha (Table B4); details: visual assessment after ca. 3 weeks vs untreated controls
# Procedure, shortened: as §2
# [8] = test system: Echinochloa crus-galli (ECHCG); assay: Herbicidal post-emergence action, 320 g/ha, ECHCG; details: visual grading after ca. 3 weeks
# Excerpt: (§4) Seeds of mono- and dicotyledonous weed plants were sown in plastic pots (double sowings with one species of mono- and one species of dicotyledonous weed plants per pot), in sandy loam, covered with soil and grown under controlled growth conditions. 2 to 3 weeks after sowing, the test plants were sprayed in the single-leaf stage. The compounds according to the invention, formulated in the form of wettable powders (WP) or as emulsifiable concentrates (EC), were sprayed onto the green plant parts as an aqueous suspension or as an emulsion, with the addition of 0.5% of an additive, at an application rate of 600 litres of water per hectare (converted). The test plants were placed in the greenhouse for ca. 3 weeks under optimum growth conditions, and then the effect of the preparations was assessed visually in comparison with untreated controls (herbicidal effect in percent (%): 100% effect=plants have died, 0% effect=as control plants).
# Tables D1 to D8 below, show the effects of selected compounds of the general formula (I) according to Table 1 on various harmful plants using an application rate corresponding to 320 g/ha obtained by the experimental procedure mentioned above.
# [9] = test system: Matricaria inodora (MATIN); assay: Herbicidal post-emergence action, 1280 g/ha (Table B6); details: visual assessment after ca. 3 weeks vs untreated controls
# Procedure, shortened: as §2
# Stellaria media (STEME) [10] = assay: Herbicidal post-emergence action, 1280 g/ha (Table B9); details: visual assessment after ca. 3 weeks vs untreated controls
# Procedure, shortened: as §2
# [11] = test system: Matricaria inodora (MATIN); assay: Herbicidal post-emergence action, 320 g/ha, MATIN; details: visual grading after ca. 3 weeks
# Procedure, shortened: as §1
# [12] = test system: Digitaria sanguinalis (DIGSA); assay: Herbicidal pre-emergence action, 1280 g/ha (Table A3); details: visual grading after ca. 3 weeks vs untreated controls
# Excerpt: (§5) Seeds of mono- and dicotyledonous weed plants were sown in plastic pots (double sowings with one species of mono- and one species of dicotyledonous weed plants per pot), in sandy loam, and covered with soil. The compounds according to the invention, formulated in the form of wettable powders (WP) or as emulsifiable concentrates (EC), were applied to the surface of the covering soil as an aqueous suspension or as an emulsion, with the addition of 0.5% of an additive, at an application rate of 600 litres of water per hectare (converted). Following treatment, the pots were placed in a greenhouse and kept under optimum growth conditions for the test plants. The visual grading of the damage to the test plants was carried out after ca. 3 weeks in comparison to untreated controls (herbicidal effect in percent (%): 100% effect=plants have died, 0% effect=as control plants). Tables A1 to A11 below, show the effects of selected compounds of the general formula (I) according to Table 1 on various harmful plants and an application rate corresponding to 1280 g/ha obtained by the experimental procedure mentioned above.
# [13] = test system: Matricaria inodora (MATIN); assay: Herbicidal pre-emergence action, 1280 g/ha (Table A6); details: visual grading after ca. 3 weeks vs untreated controls
# Procedure, shortened: (§6)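 Percent herbicidal damage relative to untreated plants (0% = as control, 100% = plants dead) was graded visually about 3 weeks after treatment under greenhouse conditions. The pre-emergence application went onto the soil surface over sown seeds, as aqueous WP/EC suspension or emulsion at 600 L/ha plus 0.5% additive.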
# Kochia scoparia (KCHSC) [14] = assay: Herbicidal pre-emergence action, 1280 g/ha (Table A4); details: visual grading after ca. 3 weeks vs untreated controls
# Procedure, shortened: as §6
# Poa annua (POAAN) [15] = assay: Herbicidal pre-emergence action, 1280 g/ha (Table A7); details: visual grading after ca. 3 weeks vs untreated controls
# Procedure, shortened: as §6
# [16] = test system: Amaranthus retroflexus (AMARE); assay: Herbicidal pre-emergence action, 1280 g/ha (Table A11); details: visual grading after ca. 3 weeks vs untreated controls
# Procedure, shortened: as §6
# Veronica persica (VERPE) [17] = assay: Herbicidal post-emergence action, 320 g/ha, VERPE; details: visual grading after ca. 3 weeks
# Procedure, shortened: as §1
# Lolium rigidum (LOLRI) [18] = assay: Herbicidal pre-emergence action, 1280 g/ha (Table A5); details: visual grading after ca. 3 weeks vs untreated controls
# Procedure, shortened: as §6
# Stellaria media (STEME) [19] = assay: Herbicidal pre-emergence action, 1280 g/ha (Table A9); details: visual grading after ca. 3 weeks vs untreated controls
# Procedure, shortened: as §6
# Poa annua (POAAN) [20] = assay: Herbicidal post-emergence action, 1280 g/ha (Table B7); details: visual assessment after ca. 3 weeks vs untreated controls
# Excerpt: as §4, with “plants). Tables B1 to B11 below, show the effects of selected compounds of the general formula (I) according to Table 1 on various harmful plants using an application rate corresponding to 1280 g/ha obtained by the experimental procedure mentioned above.” for “plants).”
# [21] = test system: Abutilon theophrasti (ABUTH); assay: Herbicidal post-emergence action, 320 g/ha, ABUTH; details: visual grading after ca. 3 weeks
# Procedure, shortened: as §1
# Lolium rigidum (LOLRI) [22] = assay: Herbicidal post-emergence action, 1280 g/ha (Table B5); details: visual assessment after ca. 3 weeks vs untreated controls
# Procedure, shortened: as §2
# [23] = test system: Abutilon theophrasti (ABUTH); assay: Herbicidal post-emergence action, 1280 g/ha (Table B1); details: visual assessment after ca. 3 weeks vs untreated controls
# Procedure, shortened: as §2
# Poa annua (POAAN) [24] = assay: Herbicidal pre-emergence action, 320 g/ha, POAAN; details: visual grading after ca. 3 weeks
# Excerpt: as §5, with “plants).” for “plants). Tables A1 to A11 below, show the effects of selected compounds of the general formula (I) according to Table 1 on various harmful plants and an application rate corresponding to 1280 g/ha obtained by the experimental procedure mentioned above.”
# Tables C1 to C6 below, show the effects of selected compounds of the general formula (I) according to Table 1 on various harmful plants using an application rate corresponding to 320 g/ha obtained by the experimental procedure mentioned above.
# [25] = test system: Alopecurus myosuroides (ALOMY); assay: Herbicidal pre-emergence action, 1280 g/ha (Table A2); details: visual grading after ca. 3 weeks vs untreated controls
# Excerpt: as §5
# Lolium rigidum (LOLRI) [26] = assay: Herbicidal post-emergence action, 320 g/ha, LOLRI; details: visual grading after ca. 3 weeks
# Procedure, shortened: as §1
# Lolium rigidum (LOLRI) [27] = assay: Herbicidal pre-emergence action, 320 g/ha (Table C2); details: visual grading after ca. 3 weeks vs untreated controls
# Procedure, shortened: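 Applied pre-emergence to the surface of soil covering weed seeds sown in sandy loam, as WP or EC formulations in water with 0.5% additive at 600 L/ha. Greenhouse-grown; damage graded visually at ca. 3 weeks as percent of untreated controls (100% = plants died).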
SMILES,herbicidal effect STEME (Stellaria media (STEME) [1]) [%],herbicidal effect AMARE [2] [%],herbicidal effect ECHCG [3] [%],herbicidal effect AMARE [4] [%],herbicidal effect KCHSC (Kochia scoparia (KCHSC) [5]) [%],herbicidal effect VERPE (Veronica persica (VERPE) [6]) [%],herbicidal effect KCHSC (Kochia scoparia (KCHSC) [7]) [%],herbicidal effect ECHCG [8] [%],herbicidal effect MATIN [9] [%],herbicidal effect STEME (Stellaria media (STEME) [10]) [%],herbicidal effect MATIN [11] [%],herbicidal effect MATIN [13] [%],herbicidal effect POAAN (Poa annua (POAAN) [15]) [%],herbicidal effect AMARE [16] [%],herbicidal effect LOLRI (Lolium rigidum (LOLRI) [18]) [%],herbicidal effect STEME (Stellaria media (STEME) [19]) [%],herbicidal effect ABUTH [21] [%],herbicidal effect LOLRI (Lolium rigidum (LOLRI) [22]) [%],herbicidal effect ABUTH [23] [%],other results
Cc1nn(C)c(=O)c(Oc2ccc(Cl)cc2Cl)c1OC(=O)C1CCC1 [Example I-064],90,100,100,100,100,90,100,100,100,100,90,–,–,–,–,–,–,–,–,herbicidal effect SETVI (Setaria viridis (SETVI)): 90%
Cc1nn(C)c(=O)c(Oc2cc(Cl)c(Cl)c(Cl)c2)c1O [Example I-077],90,–,90,–,–,–,–,–,–,100,–,100,100,100,–,–,–,–,–,herbicidal effect DIGSA [12]: 100%; herbicidal effect KCHSC (Kochia scoparia (KCHSC) [14]): 90%
CCOC(=O)Oc1c(C)nn(C)c(=O)c1Oc1ccccc1Cl [Example I-010],100,100,90,100,100,90,100,–,100,100,100,100,90,90,100,90,90,100,100,herbicidal effect VERPE (Veronica persica (VERPE) [17]): 90%; herbicidal effect POAAN (Poa annua (POAAN) [20]): 100%
Cc1nn(C)c(=O)c(Oc2ccccc2OC(F)(F)F)c1O [Example I-008],–,–,–,–,–,–,–,–,–,–,–,–,100,–,–,–,–,–,–,herbicidal effect POAAN (Poa annua (POAAN) [24]): 100%; herbicidal effect ALOMY [25]: 100%
Cc1nn(C)c(=O)c(Oc2cc(Cl)ccc2Cl)c1O [Example I-016],100,100,90,100,90,90,100,90,90,100,90,100,–,90,100,100,100,90,100,herbicidal effect LOLRI (Lolium rigidum (LOLRI) [26]): 90%; herbicidal effect LOLRI (Lolium rigidum (LOLRI) [27]): 90%
